From US20160089391A1, “Molecular Targets for Cardiovascular Disease” (Temple University-of the Commonwealth System of Higher …, priority 2014, published 2016)

Key:
calpain = assay: t-BOC calpain activity assay in intact HAECs; assay type: cell-based, human; conditions: HAECs; DL-Hcy 500 μmol/L and/or D-Glu 25 mmol/L for 48 hrs
Protocol: (FIG. 5A). In situ .O2^− production in aorta. (FIG. 5B). Nitrotyrosine (3-NT) levels. Aortic paraffin-cross sections (7 μm) from Cbs^−/+ mice were stained with 3-NT antibody and 3,3′-diaminobenzidine (DAB, brown). (FIG. 5C). Urinary 8-isoprostane levels. At the age of 8-week, Cbs^+/+ and Cbs^−/+ mice were fed with a high methionine diet (HM, methionine: 2% w/w) for 8 weeks, and/or injected with streptozotocin (STZ, i.p., 40 mg/kg) for 5 consecutive days starting from the first day of experiment. Mice fed with a control diet (CT, methionine: 0.37% w/w) and injected with vehicle (50 mM citrate buffer) served as controls. Aortic cryo-cross sections (30 μm) from Cbs^−/+ mice were stained with the superoxide marker dihydroethidium (DHE, 3 μmol/L, 30 mins.). Urine was collected from 24 hrs metabolic cage. (FIG. 5D). Endothelium-dependent vascular relaxation in HHcy/HG CBS^−/+ mouse aorta in the presence of antioxidants. Arterial rings were pre-contracted with phenylephrine (1 μmol/L) and examined for relaxation to cumulative additions of ACh in the aorta of STZ-treated Cbs^−/+ mice on HM diet. The arterial rings were preincubated with antioxidants polyethylene glycol superoxide dismutase (PEG-SOD, 150 U/mL, Sigma #S9549), Tempol (1 mmol/L, Sigma #176141), or apocynin (10 μmol/L, Sigma #W508454) for 1 hr. n=3-5. *p<0.05 vs vehicle-treated Cbs^−/+ mice on CT diet; †p<0.05 vs vehicle-treated Cbs^−/+ mice on HM diet; ‡p<0.05 vs STZ-treated Cbs^−/+ mice on CT diet; #p<0.05 vs STZ-treated Cbs^−/+ mice on HM diet. (FIG. 5E). […] Calpain activity was measured by the fluorescent substrate t-BOC-Leu-Met-CMAC (T-BOC, 10 μmol/L, 30 min) Human aortic endothelial cells (HAECs, passage 8-9) were cultured in EC medium which contains 5 mmol/L D-glucose (D-Glu), treated with DL-homocysteine (DL-Hcy, 500 μmol/L) and/or D-Glu (25 mmol/L) with or without […] (150 U/mL) or MDL28170 (MDL, 20 μmol/L) for 48 hrs, or CTsiRNA and μ-calpsiRNA for 72 hrs. […] Transfection effect of μ-calpsiRNA in HAECs was detected by Western blot after transfected with the siRNA for indicated time. […]

eNOS = eNOS protein levels in HAECs; assay type: cell-based, human
Protocol: (FIG. 7A). eNOS protein levels in mouse aorta of Cbs^−/+ mice (Left Panel) and HAECs (Right Panel). (FIG. 7B). eNOS-pThr497/495 protein levels in mouse aorta of Cbs^−/+ mice (Left Panel) and in HAECs (Right Panel). At the age of 8-week, Cbs^−/+ mice were fed with a high methionine diet (HM, methionine: 2% w/w) for 8 weeks, and/or injected with streptozotocin (STZ, i.p., 40 mg/kg) for 5 consecutive days starting from the first day of experiment. Mice fed with a control diet (CT, methionine: 0.37% w/w) and injected with vehicle (50 mmol/L citrate buffer) served as controls. Human aortic endothelial cells (HAECs, passage 8-9) were cultured in EC medium which contains 5 mmol/L D-glucose (D-Glu), treated with DL-homocysteine (DL-Hcy, 500 μmol/L) and/or D-Glu (25 mmol/L). (FIG. 7C). eNOS-pThr495 protein levels in HAECs. […]

NC(CCS)C(=O)O (racemic) [DL-Hcy, DL-homocysteine] was tested, and the calpain activity increase (calpain) was 1.8 fold and the “decrease of eNOS protein levels” value (eNOS; DL-Hcy 500 μmol/L, 48 hrs) was 59%.
For O=C[C@H](O)[C@@H](O)[C@H](O)[C@H](O)CO [D-Glu, D-glucose], the calpain activity increase (calpain) was 2.3 fold and the “effect on eNOS protein levels” value (eNOS; D-Glu 25 mmol/L, in the presence or absence of DL-Hcy) was “no effect”.
